# From patent US20200188466A1, “COMPOSITIONS OF SCHISANDRA EXTRACTS AND METHODS THEREOF” (Reyoung Corporation, priority 2017, published 2020)
# Like-named read-outs stand apart in the source and are kept apart here.
# Assay: Plasma kinetic study of celastrol with and without Schisandrin A
# Format: in vivo, Sprague Dawley rats
# Conditions: rats; for Cmax / Tmax / AUC(0-t) / AUC(0-inf) / MRT last / MRT inf / half-life: male, Sprague Dawley, rat, plasma, po, 1.8 mg/kg; for AUC(0-t): read-out: AUC0→t of celastrol; for AUC(0-inf): read-out: AUC0→∞ of celastrol; for MRT last: read-out: MRT0→t of celastrol; for MRT inf: read-out: MRT0→∞ of celastrol; for half-life: read-out: T1/2 of celastrol (converted)
# Protocol: 42 Male Sprague Dawley rats (weight, 210-250 g) were maintained on a 12-hour light/dark cycle with free access to water and lab chow for 10-14 h prior to the experiment. Rats were randomly divided into 7 groups (n=6 each) and groups 2-7 received 0 mg/kg, 5.5 mg/kg, and 11.0 mg/kg, 22.0 mg/kg, 44.0 mg/kg and 88.0 mg/kg of Schisandrin A in 1% CMC-Na (300-800 cps) via oral administration, respectively. After 5 minutes, all the groups received 1.8 mg/kg of celastrol in a solution of 2% DMSO-98% sterile water via oral administration.
# After celastrol treatment, blood samples were collected from individual rat at 0.25 h, 0.5 h, 1 h, 2 h, 4 h, 8 h, 12 h, 24 h, 36 h, and 48 h, respectively. Plasma was separated by centrifugation at 8000 rpm for 6 minutes at 4° C. and kept at −80° C. until analysis. Plasma homogenate was injected into LC-MS/MS for analysis.
# [1] = Group1, celastrol 1.8 mg/kg oral, no Schisandrin A dose stated
# [2] = Group2, Schisandrin A 0 mg/kg oral 5 min before celastrol 1.8 mg/kg oral
# [3] = Group3, Schisandrin A 5.5 mg/kg oral 5 min before celastrol 1.8 mg/kg oral
# [4] = Group4, Schisandrin A 11.0 mg/kg oral 5 min before celastrol 1.8 mg/kg oral
# [5] = Group5, Schisandrin A 22.0 mg/kg oral 5 min before celastrol 1.8 mg/kg oral
# [6] = Group6, Schisandrin A 44.0 mg/kg oral 5 min before celastrol 1.8 mg/kg oral
# [7] = Group7, Schisandrin A 88.0 mg/kg oral 5 min before celastrol 1.8 mg/kg oral
structure (smiles),measurement,setting,value
CC1=C(O)C(=O)C=C2C1=CC=C1[C@@]2(C)CC[C@@]2(C)[C@@H]3C[C@](C)(C(=O)O)CC[C@]3(C)CC[C@]12C [celastrol],T1/2 of celastrol,[1],10.07 ± 2.48 h
same,Cmax,[1],7.03 ± 2.65 ng/mL
same,Tmax,[1],5.33 ± 2.07 h
same,AUC(0-t),[1],103 ± 28.2 ng·h/mL
same,AUC(0-inf),[1],125 ± 22.4 ng·h/mL
same,MRT last,[1],12.1 ± 1.74 h
same,MRT inf,[1],12.1 ± 3.49 h
same,Cmax,[2],5.94 ± 1.38 ng/mL
same,Tmax,[2],4 h
same,AUC(0-t),[2],93.2 ± 2.74 ng·h/mL
same,AUC(0-inf),[2],107 ± 19.6 ng·h/mL
same,MRT last,[2],12 ± 1.82 h
same,MRT inf,[2],12 ± 2.33 h
same,half-life,[2],724 ± 106 min
same,Cmax,[3],7.13 ± 1.86 ng/mL
same,Tmax,[3],5.6 ± 3.58 h
same,AUC(0-t),[3],117 ± 27.8 ng·h/mL
same,AUC(0-inf),[3],124 ± 27.9 ng·h/mL
same,MRT last,[3],13.1 ± 2.27 h
same,MRT inf,[3],18.8 ± 8.57 h
same,half-life,[3],688 ± 311 min
same,Cmax,[4],7.08 ± 0.57 ng/mL
same,Tmax,[4],4 h
same,AUC(0-t),[4],123 ± 20.1 ng·h/mL
same,AUC(0-inf),[4],133 ± 20.1 ng·h/mL
same,MRT last,[4],12.9 ± 1.05 h
same,MRT inf,[4],15.7 ± 1.91 h
same,half-life,[4],546 ± 103 min
same,Cmax,[5],7.45 ± 2.72 ng/mL
same,Tmax,[5],9.33 ± 4.13 h
same,AUC(0-t),[5],146 ± 48.4 ng·h/mL
same,AUC(0-inf),[5],121 ± 31.7 ng·h/mL
same,MRT last,[5],14.2 ± 1.26 h
same,MRT inf,[5],16.9 ± 1.65 h
same,half-life,[5],619 ± 106 min
same,Cmax,[6],7.43 ± 3.47 ng/mL
same,Tmax,[6],10.7 ± 3.27 h
same,AUC(0-t),[6],156 ± 68.5 ng·h/mL
same,AUC(0-inf),[6],198 ± 94.4 ng·h/mL
same,MRT last,[6],14.9 ± 2.32 h
same,MRT inf,[6],33.1 ± 20.5 h
same,half-life,[6],1430 ± 1080 min
same,Cmax,[7],9.15 ± 6.48 ng/mL
same,Tmax,[7],6.67 ± 4.13 h
same,AUC(0-t),[7],171 ± 99.1 ng·h/mL
same,AUC(0-inf),[7],186 ± 108 ng·h/mL
same,MRT last,[7],14.2 ± 1.18 h
same,MRT inf,[7],16.7 ± 1.68 h
same,half-life,[7],557 ± 118 min
